Reference: US20210137886A1, “INHIBITORS OF METALLO-BETA-LACTAMASES” (Oxford University Innovation Limited, priority 2017, published 2021)

How the values were obtained:
[1] = test system: Klebsiella pneumoniae IMP-4; assay: Meropenem MIC, CLSI broth or agar microdilution, strain entry 1; type: cell-based
E. coli IMP-4 = assay: Meropenem MIC, CLSI broth or agar microdilution, strain entry 2; type: cell-based
E. coli VIM-1 = assay: Meropenem MIC, CLSI broth or agar microdilution, strain entry 3; type: cell-based; details: strain entry 3, E. coli VIM-1
Excerpt: (§1) In each case DMSO was used to dissolve inhibitors.

[2] = test system: Klebsiella pneumoniae VIM-1; assay: Meropenem MIC, CLSI broth or agar microdilution, strain entry 4; type: cell-based
[3] = test system: Pseudomonas aeruginosa VIM-2; assay: Meropenem MIC, CLSI broth or agar microdilution, strain entry 5; type: cell-based; details: strain entry 5, Pseudomonas aeruginosa VIM-2
Excerpt: as §1

[4] = test system: Klebsiella pneumoniae NDM-1; assay: Meropenem MIC, CLSI broth or agar microdilution, strain entry 6; type: cell-based; details: strain entry 6, Klebsiella pneumoniae NDM-1
Excerpt: as §1

[5] = test system: Klebsiella pneumoniae NDM-1 + DHA + CTX − M-15; assay: Meropenem MIC, CLSI broth or agar microdilution, strain entry 7; type: cell-based
[6] = molecular target: VIM-2 (Veronese metallo-β-lactamase-2) (Escherichia coli, UniProt Q5U7L7); assay: Metallo-β-lactamase enzyme inhibition, standard assay protocol
IMP-1 (Imipenemase-1) = IMP-1 (Imipenemase-1) (Serratia marcescens, UniProt P52699); assay: as above
[7] = molecular target: NDM-1 (New Delhi metallo-β-lactamase-1) (Klebsiella pneumoniae, UniProt C7C422); assay: as above
[8] = molecular target: VIM-1 (Veronese metallo-β-lactamase-1) (Pseudomonas aeruginosa, UniProt A0A0F7KYQ8); assay: as above

Chain of NDM-1 (New Delhi metallo-β-lactamase-1) (C7C422 29-270, looked up, species assumed): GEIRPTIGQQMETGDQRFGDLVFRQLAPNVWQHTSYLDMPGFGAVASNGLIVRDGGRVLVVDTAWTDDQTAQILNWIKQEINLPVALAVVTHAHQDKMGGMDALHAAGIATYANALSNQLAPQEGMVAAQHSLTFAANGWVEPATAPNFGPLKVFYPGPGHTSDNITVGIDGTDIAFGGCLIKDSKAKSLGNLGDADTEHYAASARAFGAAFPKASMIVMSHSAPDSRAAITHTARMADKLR
Chain of IMP-1 (Imipenemase-1) (P52699 19-246, looked up, species assumed): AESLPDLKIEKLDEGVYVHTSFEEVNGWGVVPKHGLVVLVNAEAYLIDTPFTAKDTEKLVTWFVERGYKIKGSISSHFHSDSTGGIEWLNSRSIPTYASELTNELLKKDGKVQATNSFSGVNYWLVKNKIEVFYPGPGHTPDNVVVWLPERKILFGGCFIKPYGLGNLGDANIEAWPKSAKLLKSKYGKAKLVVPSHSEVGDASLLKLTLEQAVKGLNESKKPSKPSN

Structure (SMILES)	Change in MIC value of meropenem ([1]; 2 mg/L inhibitor) [log2 difference]	Change in MIC value of meropenem ([1]; 4 mg/L inhibitor) [log2 difference]	Change in MIC value of meropenem ([1]; 8 mg/L inhibitor) [log2 difference]	Change in MIC value of meropenem (E. coli IMP-4; 2 mg/L inhibitor) [log2 difference]	Change in MIC value of meropenem (E. coli IMP-4; 4 mg/L inhibitor) [log2 difference]	Change in MIC value of meropenem (E. coli IMP-4; 8 mg/L inhibitor) [log2 difference]	Change in MIC value of meropenem (E. coli VIM-1; 2 mg/L inhibitor) [log2 difference]	Change in MIC value of meropenem (E. coli VIM-1; 4 mg/L inhibitor) [log2 difference]	Change in MIC value of meropenem (E. coli VIM-1; 8 mg/L inhibitor) [log2 difference]	Change in MIC value of meropenem ([2]; 2 mg/L inhibitor) [log2 difference]	Change in MIC value of meropenem ([2]; 4 mg/L inhibitor) [log2 difference]	Change in MIC value of meropenem ([2]; 8 mg/L inhibitor) [log2 difference]	Change in MIC value of meropenem ([3]; 2 mg/L inhibitor) [log2 difference]	Change in MIC value of meropenem ([3]; 4 mg/L inhibitor) [log2 difference]	Change in MIC value of meropenem ([3]; 8 mg/L inhibitor) [log2 difference]	Change in MIC value of meropenem ([4]; 2 mg/L inhibitor) [log2 difference]	Change in MIC value of meropenem ([4]; 4 mg/L inhibitor) [log2 difference]	Change in MIC value of meropenem ([4]; 8 mg/L inhibitor) [log2 difference]	Change in MIC value of meropenem ([5]; 2 mg/L inhibitor) [log2 difference]	Change in MIC value of meropenem ([5]; 4 mg/L inhibitor) [log2 difference]	also measured
O=C(O)c1[nH]c2c(C3CC3)csc2c1-c1ccc(F)cc1 [Example 13, 3-cyclopropyl-6-(4-fluorophenyl)-4H-thieno-[3,2-b]pyrrole-5-carboxylic acid]	−2	−2	−2	−2	−2	−2	−1	−1	−1	−2	−2	−2	0	0	0	−1	−1	−2	−2	−2	Change in MIC value of meropenem ([5]; 8 mg/L inhibitor): −2 log2 difference; IC50 [6]: 79.4 nM; IC50 (IMP-1 (Imipenemase-1)): 398 nM; IC50 [7]: 50.1 nM; IC50 [8]: 1580 nM
NS(=O)(=O)c1ccc(-c2c(C(=O)O)[nH]c3c(Br)csc23)cc1 [Example 14, 3-bromo-6-(4-sulfamoylphenyl)-4H-thieno-[3,2-b]pyrrole-5-carboxylic acid]	−1	−1	−1	−1	−1	−1	−1	−1	−1	−1	−1	−1	0	0	0	−1	−1	−2	−2	−2	Change in MIC value of meropenem ([5]; 8 mg/L inhibitor): −3 log2 difference; IC50 [6]: 158 nM; IC50 (IMP-1 (Imipenemase-1)): 1260 nM; IC50 [7]: 63.1 nM; IC50 [8]: 3160 nM
